Experimental data taken from patent US8901160B2, “Heparanase activity inhibitor” (Shiseido Company, Ltd., priority 2009, dated 2014).

Target: T1, heparanase (Homo sapiens, UniProt Q9Y251)
T1 construct: the supernatant was recovered as cell extract; endogenous in cells; host or cells: A431 cells (human epithelial carcinoma), Triton X-100 lysate supernatant
T1 sequence (Q9Y251 158-543 limits assumed): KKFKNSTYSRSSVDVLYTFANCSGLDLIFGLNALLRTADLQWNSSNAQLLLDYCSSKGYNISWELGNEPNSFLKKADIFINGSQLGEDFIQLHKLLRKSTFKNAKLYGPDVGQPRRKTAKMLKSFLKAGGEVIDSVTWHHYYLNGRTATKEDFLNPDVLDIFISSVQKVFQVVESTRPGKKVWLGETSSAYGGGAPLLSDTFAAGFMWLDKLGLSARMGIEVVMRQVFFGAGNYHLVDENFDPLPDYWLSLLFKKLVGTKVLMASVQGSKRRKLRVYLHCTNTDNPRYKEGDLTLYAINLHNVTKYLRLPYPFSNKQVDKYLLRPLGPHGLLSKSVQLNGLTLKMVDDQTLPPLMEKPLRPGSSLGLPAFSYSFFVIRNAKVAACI
T1 sequence (Q9Y251 36-109 limits assumed): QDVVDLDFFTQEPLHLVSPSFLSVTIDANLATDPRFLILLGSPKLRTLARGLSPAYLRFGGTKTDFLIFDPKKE
Assay: Evaluation based on heparanase activity inhibition rate (A431 cell extract, biotinylated heparan sulfate-immobilized plate)
Format: biochemical
Settings: 37° C., 2 hours
Description: In the primary evaluation using heparanase activity as the index, as described in detail in the examples which follow, biotinylated heparan sulfate was immobilized in 96 wells, after which heparanase was allowed to act in the presence of a drug, and the amount of reduction in biotinylated heparan sulfate was used to evaluate the heparanase activity by the reaction with peroxidase-labeled avidin and coloration.
A431 cells (human epithelial carcinoma cells) were cultured in 10% serum-containing DMEM (Dulbecco's modified Eagle medium). The cultured cells were solubilized in lysis buffer (50 mM Tris, 0.5% TritonX-100, 0.15 M sodium chloride, pH 4.5) and collected with a scraper, and then pipetted and allowed to stand on ice for 30 minutes. This was followed by centrifugation at 10,000 rpm for 10 minutes to remove the insoluble portion, and the supernatant was recovered as cell extract. The amount of protein in the cell extract was measured with a BCA protein assay kit (BCA Protein Assay Kit, PIERCE, CA46141).
The A431 cell extract was then diluted to 500 μg/mL with assay buffer (50 mM HEPES, 50 mM sodium acetate, 150 mM sodium chloride, 9 mM calcium chloride, 0.1% BSA). […] After further rinsing 3 times with PBS-T, TMB reagent (BIO-RAD, 172-1066) was added at 100 μL/well and reacted therewith, the reaction was terminated with 1N sulfuric acid, and the absorbance at 475 nm (OD475) was measured.
Also, DMSO was added to a serial diluent prepared with the aforementioned A431 cell extract assay buffer (cell extract concentrations: 500 μg/mL, 50 μg/mL, 5 μg/mL, 0.5 μg/mL), to a final concentration of 5% without addition of the test compound, to obtain a mixture (solution for calibration curve). The solution for the calibration curve was subjected to the treatment of the same procedure described above, from seeding of the biotinylated heparan sulfate-immobilized plate, and the OD475 was measured. […]

SMILES	Heparanase inhibition rate (addition concentration 0.05%)	Heparanase inhibition rate (addition concentration 0.5%)
O=C1NCCN1CCO [1-(2-Hydroxyethyl)-2-imidazolidinone, 1-(2-hydroxyethyl)-2-imidazolidinone]	99.40%	
O=C1CCCN1CCO [1-(2-Hydroxyethyl)-2-pyrrolidone, 1-(2-hydroxyethyl)-2-pyrrolidone]	99.00%	
O=C1NCCN1 [2-Imidazolidinone, 2-imidazolidinone]		99.95%
